Patent US20050143336A1 (priority 2003, published 2005)
“Also recorded” adds a separate entry of the source.

Assays:
[1] = system: p38, JNK, ERK, pATF2, pcJun, STAT3, COX-2; assay: Western blot of signaling molecules in lung, liver and spleen after FUS1-nanoparticle with or without naproxen; type: in vivo, C3H mice
Method: Western blot analysis for the Signaling molecules. At the time of western blot analysis, organs were slowly thawed on ice. […] Whole Cell lysates were collected in an Eppendorf tube and sonicated for 30 seconds and heated in a water bath at 95° C. for 5 mins and then centrifuged at 13000 rpm for 10 min at 4° C. The supernatants were mixed with 5% 2-mercaptoethanol and stored at −80° C. Protein concentrations was determined by BCA protein assay. Aliquots of cell extracts containing 50 μg of total protein were resolved in 10% SDS-PAGE and transferred from gel to nitrocellulose membrane (Hybond-ECL; Amersham Pharmacia Biotech, UK) and then blocked for 1 h at room temperature (5% nonfat milk powder and 0.1% Tween 20 in TBS or PBS). Then the membranes were incubated with the primary antibodies, phosphospcific p38 (1:1000), phosphospecific pJNK (1:1000), phosphospecific p44/42 (1:1000), phospho ATF2 (1:1000), phospho cJun (1:1000), phospho STAT3 (1:1000) and COX-2 (1:1000). The membranes were then incubated with HRP-conjugated rabbit IgG Ab (Amersham) and the bound antibodies were visualized by enhanced chemiluminescence (Amersham; Piscataway, N.J.). The expression of α-actin was used as the loading control.

PGE2 production = PGE2 production assay in cells transfected with FUS1-nanoparticles; type: cell-based, Human; details: naproxen 0.5 mM prior to FUS1-nanoparticles
Method: PGE2 production assay. Cells were seeded in 6-well plates (1-3×10^6 cells/well) and incubated at 37° C. Twenty-four hours later, the culture medium was replaced and replenished with fresh medium supplemented with 0.2% serum. […] At 3.5 h after treatment cells were transfected with FUS1-nanoparticles (2.5 μg DNA). The amount of PGE2 secreted into the culture supernatant at various time (2 h, 4 h, and 15 h) points was determined using the PGE2 enzyme immunoassay (Cayman Chemicals, Ann Arbor, Mich.). Assay was performed according to manufacturer's protocol.

[2] = system: TNF-α, IL-6 and PGE2 production in RAW 264.7 cells; assay: Inflammatory cytokines production assay in RAW 264.7 macrophage cells; type: cell-based, Mouse; details: RAW 264.7, naproxen 0.5 mM before FUS1-nanoparticle
Method: The following day, tissue culture medium was replaced with fresh 0.2% medium and incubated overnight at 37° C. and 5% CO2. […] Assay was performed according to manufacturer's protocol.

[3] = system: NFκB and STAT3 DNA binding; assay: Electrophoretic mobility shift assay of lung nuclear extracts for NFκB and STAT3; type: in vivo, C3H mice; details: in the presence of naproxen
Method: Electrophoretic mobility shift assay. […] Santa Cruz Biotechnology, Santa Cruz, Calif.) and NF-κB consensus oligonucleotide […] These probes were end-labelled with [γ-^32P]ATP(3000 Ci/mmol at 10 mCi/ml; Amersham Biosciences, Sunnyvale, Calif.). DNA binding reactions were performed at room temperature in a 25-μl reaction mixture containing 6-μl of nuclear extract and 5 μl of 5× binding buffer (20% (w/v) Ficoll, 50 mM HEPES (pH 7.9), 5 mM EDTA, 5 mM DTT). […] Samples were electrophoresed through 5.5% polyacrylamide gels in 0.5×TBE at 160 V for 3 h, dried under vacuum, and exposed to X-ray film after overnight expose with hyperfilm at -80° C. The gel was then dried and subjected to autoradiography. […] The minced tissue was homogenized using a Dounce homogenizer and centrifuged at 14,000 rpm at 4° C. for 10 min. […] The supernatant (nuclear extract) was collected and stored at -80° C. until use. The protein concentrationm was measured by the method of Bradford with BSA as the standard. […] Briefly, Double-stranded oligonucleotides consensus NFκB (Promega) were end-labelled with [γ-^32P]-ATP using T4 polynucleotide kinase. […] The bands were visualized by autoradiography.

AP-1 = AP-1 DNA binding activity, electrophoretic mobility shift assay in MRC-9 cells; type: cell-based, Human; details: naproxen pretreatment before FUS1-nanoparticles
Method: Electrophoretic mobility shift assay (EMSA). MRC-9 cells were seeded in six well plates at 1.3×10^6 cells/well for EMSA. […] Cells were harvested at 2, 4 and 15 h after transfection and nuclear extracts prepared. To the nuclear extracts (10 μg), DNA binding reaction mixture containing [γ-^32P]-ATP radiolabeled AP-1 oligonucleotide and 0.5 μg poly (dI-dC) were added and incubated at 25° C. for 30 min in 5× gel shift binding buffer [20% glycerol, 5 mM MgCl2 2.5 mM EDTA, 2.5 mM DTT, 250 mM NaCl, 50 mM Tris-HCl (pH 7.5)]. The complexes were subsequently resolved on 5% nondenaturing polyacrylamide gels in 0.5×Tris-borate EDTA buffer for 1 h 30 min at 300 V. The bands were visualized by autoradiography.

[4] = system: p38MAPK, pJNK, p44/42MAPK, pATF-2, pc-Jun, COX-2 in MRC-9 fibroblast cells; assay: Inflammation-associated signaling molecules in MRC-9 cells transfected with FUS1-nanoparticles (western blot); type: cell-based, Human; details: naproxen 0.5 mM prior to FUS1-nanoparticles
Method: In vitro experiments. To determine the effect of FUS1-nanoparticles on the activation of signaling molecules associated with inflammation, MRC-9 fibroblast cells were seeded in six-well plates (5×10^5 cells/well) and incubated overnight at 37° C. and 5% CO2. […] Two-three hours after treatment, cells were transfected with FUS1-nanoparticles (2.5 μg DNA) in 0.2% serum medium. Cells were harvested at different time-points (2 h, 4 h, 15 h) after transfection, washed, and cell lysates prepared as previously described (Ramesh et al., 2001a). Untransfected cells treated with PBS served as control in these experiments. Cell lysates were subjected to western blotting analysis and probed with various antibodies as previously described (Ramesh et al., 2001b; Ito et al., 2003). In all the experiments, β-actin was detected using anti-β-actin antibody (Sigma Chemicals, St. Louis, Mo.) as a measure of internal loading control.

[5] = 15 mg/kg orally
Method: At indicated times after injection, blood and organ was collected at different time points. TNF-α, IL-6, IL-1a and IFN-γ levels in serum (C) and TNF-α, IL-6 (D) in organs were determined using specific immunoassay kit. Data represent means±SD.
Animals were euthanized at 2, 4, 6, and 15 hours after treatment, and blood was collected. Blood samples were stored at −80° C. until all samples were collected. They were then submitted to the Drug Analysis Core Facility at M.D. Anderson Cancer Center.

COc1ccc2cc([C@H](C)C(=O)O)ccc2c1 [Naproxen, naproxen]
phosphorylation of JNK, ATF-2, cJun, STAT3 ser727 and Tyr 705 in liver and spleen ([1]; naproxen 15 mg/kg): inhibited
p38 phosphorylation in lung ([1]; naproxen 15 mg/kg 2 h before FUS1-nanoparticle, all time points): complete inhibition
JNK and ERK phosphorylation in lung ([1]; naproxen 15 mg/kg, 2 and 4 h): partial inhibition
COX-2 induced by FUS1-nanoparticle ([1]; naproxen 15 mg/kg, 2 h): inhibition
phosphorylation of ATF-2, cJUN and STAT3 (Ser 727, Tyr705) in lung ([1]; naproxen 15 mg/kg, 4 h and 15 h): inhibited
inhibition of PGE2 (PGE2 production): almost complete; also recorded: significantly inhibition in PGE2 levels
secreted PGE2 levels (PGE2 production; 2-15 h): 33 to 120 pg/mL
production of TNF-α, IL-6 and PGE2 [2]: suppressed
activation of NFκB and STAT3 in lung [3]: suppressed
AP-1 DNA binding activity (AP-1): inhibition of AP-1 activity
expression of downstream substrates pATF-2, pc-Jun and COX-2 [4]: decreased expression
expression of p38MAPK, pJNK and p44/42MAPK [4]: significant inhibition
maximum levels of naproxen in the blood [5]: 3.5 μg/200 μl of blood
time by which naproxen reached baseline levels [5]: ≤ 15 h
